We go through 9 compounds from PubChem BioAssay (NCI).

Among the test systems are EKVX NSCLC; M14 melanoma; MDA-MB-231 breast; SK-MEL-2 melanoma; HCC-2998 colon; HL-60(TB) leukemia; OVCAR-4 ovarian; SR leukemia.
Assay in all cases: inhibition of tumour cell growth, NCI panel, 48 h

Each structure is given as a SMILES string. Several values for one entry are separate records, joined by “and”; a condition that tells them apart may be missing. Identical values can stand only once.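 Exposure lasted 48 hours, with cells grown in 96-well plates and compounds tested at five concentrations. Abbreviation: GI50, concentration required for 50% inhibition of growth. TGI: concentration producing complete growth inhibition.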 A value given as a limit tells only on which side of the number the result lay.

Consider `COc1ccc2cc(C(=O)/C=C/c3ccccc3OC)ccc2c1`, for which the GI50 with EKVX NSCLC is 17.5 µM; in the experiment on M14 melanoma it was 4.34 µM; in the experiment on MDA-MB-231 breast, 2.73 µM; in the experiment with SK-MEL-2 melanoma, 10.3 µM; with HCC-2998 colon it was 5.92 µM; with HL-60(TB) leukemia, 2.55 µM. In addition, the GI50 in the experiment on OVCAR-4 ovarian is 18.9 µM; with SR leukemia, 0.312 µM. The TGI was 58.5 µM in the experiment with EKVX NSCLC; 25.6 µM in the experiment with M14 melanoma; 21.7 µM in the experiment on MDA-MB-231 breast; 35.2 µM in the experiment with SK-MEL-2 melanoma; 13 µM in the experiment with HCC-2998 colon; 8.14 µM in the experiment with HL-60(TB) leukemia. In addition, the TGI in the experiment on OVCAR-4 ovarian was over 100 µM.
Take `CCCNNC(=O)c1ccc(CNC(=O)/C=C/c2ccccc2)cc1`: the GI50 in the experiment on EKVX NSCLC is 0.311 µM; in the experiment on M14 melanoma it was 0.079 µM; with MDA-MB-231 breast it was 0.348 µM; with SK-MEL-2 melanoma, 0.199 µM; in the experiment with HCC-2998 colon, 0.186 µM; in the experiment with HL-60(TB) leukemia it was 0.219 µM. For the same compound, the GI50 was 0.375 µM with OVCAR-4 ovarian and 0.18 µM in the experiment on SR leukemia. Also, the TGI is over 100 µM with EKVX NSCLC; over 100 µM in the experiment on M14 melanoma; over 100 µM with MDA-MB-231 breast; 0.653 µM in the experiment with HCC-2998 colon; over 100 µM with HL-60(TB) leukemia; over 100 µM in the experiment with OVCAR-4 ovarian. This compound also yielded a TGI in the experiment with SR leukemia of over 100 µM.
As for `Nc1nn(C(=O)Nc2ccc(Cc3ccccc3)cc2)c2ccccc12`, the GI50 in the experiment on EKVX NSCLC was 11.2 µM; in the experiment on M14 melanoma, 0.772 µM; in the experiment with MDA-MB-231 breast, 0.847 µM; with SK-MEL-2 melanoma it was 36.4 µM; in the experiment with HCC-2998 colon, 4.27 µM; with HL-60(TB) leukemia, 0.466 µM. Also, the values for the GI50 in the experiment on OVCAR-4 ovarian and with SR leukemia were 10.7 µM and 0.0153 µM, respectively. Besides, the TGI is 92 µM with EKVX NSCLC; over 100 µM in the experiment with M14 melanoma; 43.9 µM with MDA-MB-231 breast; over 100 µM in the experiment on SK-MEL-2 melanoma; 35.9 µM in the experiment on HCC-2998 colon; 15.2 µM in the experiment with HL-60(TB) leukemia. Moreover, the TGI in the experiment with OVCAR-4 ovarian was 40.4 µM; in the experiment on SR leukemia, 0.0822 µM.
Consider `COc1ccc2c(c1)CC[C@@H]1[C@@H]2CC[C@]2(C)c3c(cc(C(=O)c4ccccc4)c4sccc34)C[C@@H]12`, for which the GI50 in the experiment on EKVX NSCLC was over 100 µM; in the experiment on M14 melanoma it was 75.4 µM; with MDA-MB-231 breast it was over 100 µM; in the experiment on SK-MEL-2 melanoma, over 100 µM; in the experiment on HCC-2998 colon, over 100 µM; with HL-60(TB) leukemia, 6.73 µM. Besides, the GI50 in the experiment with OVCAR-4 ovarian was 76.8 µM; in the experiment on SR leukemia, over 100 µM. The TGI in the experiment on EKVX NSCLC, in the experiment with M14 melanoma, in the experiment with MDA-MB-231 breast, in the experiment on SK-MEL-2 melanoma, in the experiment with HCC-2998 colon and in the experiment on HL-60(TB) leukemia was over 100 µM each time. Further, the TGI with OVCAR-4 ovarian and in the experiment with SR leukemia was over 100 µM in each case.
With `COc1ccc2oc(-c3ccc(Cl)cc3)c(N3CCN(C)CC3)c2c1`, the GI50 in the experiment on EKVX NSCLC is 0.603 µM; in the experiment on M14 melanoma, 1.95 µM; in the experiment with MDA-MB-231 breast it was 1.64 µM; in the experiment with SK-MEL-2 melanoma, 1.8 µM; in the experiment on HCC-2998 colon, 2.02 µM; with HL-60(TB) leukemia it was 2.64 µM. Besides, the GI50 in the experiment on OVCAR-4 ovarian is 2.12 µM; in the experiment on SR leukemia it was 2.27 µM. Also, the TGI was 2.47 µM with EKVX NSCLC; 4.26 µM with M14 melanoma; 3.27 µM with MDA-MB-231 breast; 4.4 µM with SK-MEL-2 melanoma; 4.13 µM in the experiment on HCC-2998 colon; over 20 µM in the experiment on HL-60(TB) leukemia. Further, the TGI was determined as 7.22 µM in the experiment with OVCAR-4 ovarian and 8.12 µM in the experiment with SR leukemia.
As to `CSc1ccc2c(c1)C(=O)c1c-2n(CCCN=[N+]=[N-])c(=O)c2cc([N+](=O)[O-])ccc12`, the GI50 was over 100 µM with EKVX NSCLC; 1.29 µM with M14 melanoma; over 100 µM with MDA-MB-231 breast; 66.7 µM in the experiment with SK-MEL-2 melanoma; 1.57 µM with HCC-2998 colon; 1.17 µM with HL-60(TB) leukemia. Moreover, the figures for the GI50 in the experiment on OVCAR-4 ovarian and in the experiment on SR leukemia were over 100 µM and 0.2 µM, respectively. In addition, the TGI was over 100 µM with EKVX NSCLC; over 100 µM in the experiment on M14 melanoma; over 100 µM in the experiment on MDA-MB-231 breast; over 100 µM in the experiment with SK-MEL-2 melanoma; 66 µM in the experiment with HCC-2998 colon; over 100 µM with OVCAR-4 ovarian. The same compound showed a TGI in the experiment with SR leukemia of 5.8 µM.
As for `Cc1cc(Cl)ccc1Nc1nc(C(F)(F)F)ccc1C(=O)N/N=C/c1ccc(F)cc1`, the GI50 in the experiment on EKVX NSCLC was 1.13 µM; in the experiment on M14 melanoma it was 1.84 µM; in the experiment with MDA-MB-231 breast, 1.47 µM; in the experiment on SK-MEL-2 melanoma it was 1.84 µM; in the experiment with HCC-2998 colon, 1.1 µM; in the experiment with HL-60(TB) leukemia, 1.77 µM. In addition, the GI50 in the experiment on OVCAR-4 ovarian was 0.513 µM; with SR leukemia it was 0.863 µM. For the same compound, the TGI turned out to be 8.17 µM in the experiment on EKVX NSCLC; 9.64 µM in the experiment with M14 melanoma; 5.94 µM in the experiment with MDA-MB-231 breast; 5.82 µM with SK-MEL-2 melanoma; 4.54 µM with HCC-2998 colon; 5.01 µM with HL-60(TB) leukemia. In addition, the values for the TGI in the experiment with OVCAR-4 ovarian and in the experiment with SR leukemia were 12.9 µM and 3.62 µM, respectively.
As to `N=c1c2c(=O)n3c(nc2nc2sc4ccc(Cl)cc4n12)-c1ccccc1Sc1ccccc1-3`, the GI50 in the experiment on EKVX NSCLC was 1.42 µM; with M14 melanoma it was 2.99 µM; in the experiment on MDA-MB-231 breast, 2.56 µM; in the experiment on SK-MEL-2 melanoma, 2.07 µM; in the experiment with HCC-2998 colon, 3.12 µM; with HL-60(TB) leukemia, 2.21 µM. Moreover, the GI50 in the experiment on OVCAR-4 ovarian was 3.5 µM; with SR leukemia, 2.15 µM. In addition, the TGI in the experiment with EKVX NSCLC stood at 8.97 µM; in the experiment on M14 melanoma, 10.6 µM; in the experiment on MDA-MB-231 breast, 16.2 µM; in the experiment on SK-MEL-2 melanoma, 5.99 µM; with HCC-2998 colon, 12.8 µM; in the experiment with HL-60(TB) leukemia it was 6.63 µM. The values for the TGI with OVCAR-4 ovarian and in the experiment with SR leukemia were 19.6 µM and 9.14 µM, respectively.
For the compound `COc1cc([C@@H]2c3cc4c(cc3[C@H](O)[C@H]3COC(=O)[C@@H]23)OCO4)cc(OC)c1OC`, the GI50 is 0.434 µM in the experiment with EKVX NSCLC; 0.355 µM and 0.135 µM in the experiment with M14 melanoma; 0.776 µM and 0.454 µM in the experiment on MDA-MB-231 breast; 0.445 µM and 0.584 µM with SK-MEL-2 melanoma; 0.948 µM and 0.159 µM in the experiment on HCC-2998 colon; 0.293 µM and 0.454 µM in the experiment with HL-60(TB) leukemia. In addition, the GI50 with OVCAR-4 ovarian is 1.03 µM and 4.92 µM; in the experiment with SR leukemia, 0.222 µM. Moreover, the TGI in the experiment with EKVX NSCLC was over 100 µM; in the experiment with M14 melanoma, over 100 µM; with MDA-MB-231 breast, over 100 µM; with SK-MEL-2 melanoma, over 100 µM; with HCC-2998 colon it was > 6.16 µM and 0.647 µM; with HL-60(TB) leukemia it was > 2.81 µM and 64.1 µM. The values for the TGI in the experiment on OVCAR-4 ovarian and in the experiment on SR leukemia were over 100 µM and over 10 µM, respectively.
